# Source: US9517233B2, “Local cochlear application of statins for stimulating neurite regrowth in the cochlea” (Northwestern University, priority 2012, dated 2016)
# “Also recorded” adds a separate entry of the source.
# What was measured:
# spiral ganglion neurons = test: In vitro phenotypic screening assay of neurite length in spiral ganglion cultures; assay type: cell-based, mouse; settings: for effect on neurite length / lowest effective dose for stimulating neurite growth (neurite length dose response): spiral ganglion cultures; for effect on neurite length: compound in culture media; for effect on neurite length at 10 μM: media containing compound at 10 μM, DMSO negative control, 4 replicate cultures; for lowest effective dose for stimulating neurite growth (neurite length dose response): cumulative percent histograms of neurite length vs DMSO control, highest dose tested 25 μM for Pravastatin
# Description: The in vitro phenotypic screen for spiral ganglion neurons is designed to identify both survival promoting and neurite promoting compounds. The screening procedure focuses on the survival, neurite initiation and neurite elongation steps of the experimental model (FIG. 5A-C). […] Newborn mouse pups served as a source for preparing primary cultures of the spiral ganglia from 16 cochleas. From these cochleas, 192 cultures in a 384 well plate that enables screening of 45 compounds and 3 controls for each dissection.
# The screening approach preferably uses automated imaging and computer assisted data analysis. […] Populations of neurites are measured and graphed as cumulative percent histograms of neurite length. In these graphs, a shift to the right means that the population had longer neurites.
# CD-1 mice (Charles River Laboratories, Wilmington Mass. [US]), age newborn, were used for cultures that test neurite length; postnatal day 1-2 mice were used for cultures that test survival. Mice were anesthetized by cooling at −80° C. for 4 minutes and euthanized by aseptic decapitation.
# Cultures were prepared by a modification of the procedure previously reported and modified (Whitlon et al., Neuroscience 138, 653-662 (2006); Lie et al., Neuroscience 169, 855-862 (2010); Whitlon et al. Neuroscience 146, 833-840 (2007); Whitlon et al., Neuroscience 161, 227-235 (2009)). To increase the number of cultures produced from one dissecting session while maintaining consistency in the preparations, the number of animals was increased to 8 (16 cochleas, a practical limit) and the volume of the cultures was decreased to 50 μl. Cells derived from the equivalent of […] ganglia were plated in each well. These changes allowed the material from each dissection session to be cultured in 192 wells of a standard 384 well plate. Each dissection session could accommodate 3 controls and 45 compounds in quadruplicate. The cochlear capsule was opened and the tissue was treated with Dispase, 5 units/ml. After washing, the cochlea was removed from its capsule. The cochlear epithelium, spiral ligament and stria were dissected away. […] Both were then diluted in medium and added to the wells 22 hours after plating. Cultures were fixed 24 hours later with 4% paraformaldehyde in 0.1M sodium phosphate buffer, pH 7.2 for 45 minutes. Conditions were tested in quadruplicate. […] Negative controls were the vehicles DMSO (0.17%) and water (0.17%).
# Fixed cultures were immunolabeled for the neural βIII tubulin using the mouse monoclonal antibody TuJ1 and Alexa Fluor 594 tagged secondary antibody as described for immunofluorescent labeling (Whitlon et al. Neuroscience 161, 227-235 (2009)). Nuclei were visualized with Nuclear Yellow. The labeled cultures were preserved with one drop of DAKO fluorescent mounting medium in each well.
# The immunolabeled 384 well plates were loaded into an Image Xpress automatic imager for image acquisition.
# [1] = system: PTS noise exposed guinea pigs; test: Guinea pig model of PTS, auditory brainstem response (ABR) thresholds after noise exposure; assay type: in vivo; settings: left ear infused with 50 μM Fluvastatin, 250 μL over 28 days by miniosmotic pump, from noise exposure on; hearing measured in contralateral right ear
# Description: A testing method with a guinea pig model of PTS was developed for this purpose. Compounds were introduced into the left ear of the subject with a cannula attached to a miniosmotic pump. Because the cannula is physically within the cochlea, it had the possibility of interfering with sound transfer in the cochlea, and thereby interfering with auditory brain response (ABR) measurements. For this reason, the compound was delivered via cannula to the left ear, but tested for its effect in the contralateral ear, taking advantage of the connection between cochlear fluids and the cerebral spinal fluid. Animals were subjected to an sound injury causing PTS. Fluvastatin was delivered in vivo to the left ear at 50 times the concentration that was effective for stimulating neurite growth in vitro and ABRs were evaluated in the contralateral, right cochleas. […] The compound was first evaluated for the ability to provide a protective effect from hearing loss attributed to high level noise, wherein the compound was delivered at the same time as the noise exposure and for 4 weeks thereafter. […]
# Drug efficiency was tested in guinea pigs, 200-500 g in body weight. […] Baseline cochlear function was determined with auditory brainstem responses. Sound levels to evoke a visual ABR response were determined for pure tones at selected frequencies between 2 and 32 kHz and for acoustic clicks. […]
smiles,measurement,setting,value
O=c1[nH]ccc2c(S(=O)(=O)N3CCCNCC3)cccc12 [Hydroxyl Fasudil],effect on neurite length,spiral ganglion neurons,stimulated neurite length
COCc1c(C(C)C)nc(C(C)C)c(/C=C/[C@@H](O)C[C@@H](O)CC(=O)O)c1-c1ccc(F)cc1 [Cerivastatin],effect of geranylgeraniol on the statin's stimulation of neurite length,spiral ganglion neurons; media containing both statin (Cerivastatin 10 μM or Fluvastatin 5 μM) and geranylgeraniol (10 μM),effectively blocked the stimulatory effect
same,effect on neurite length at 10 μM,spiral ganglion neurons,increased neurite length
same,neurite growth compared with positive control H1152,"spiral ganglion neurons; screen of NIH Clinical Collection, FIG. 11A",stimulated neurite growth as well as H1152
same,lowest effective dose for stimulating neurite growth (neurite length dose response),spiral ganglion neurons,1 µM
"CC(C)n1c(/C=C/[C@H](O)C[C@H](O)CC(=O)O)c(-c2ccc(F)cc2)c2ccccc21 (stereo in doubt) [Fluvastatin, (3S,5R,6E)-7-[3-(4-fluorophenyl)-1-(propan-2-yl)-1H-indol-2-yl]-3,5-dihydroxyhept-6-enoic acid]",protection from hearing loss / permanent threshold shift (ABR threshold change),[1],effective protection by preventing hearing loss; also recorded: PTS injury could not be induced
same,lowest effective dose for stimulating neurite growth (neurite length dose response),spiral ganglion neurons,1 µM
"O=C(O)C[C@H](O)C[C@H](O)/C=C/c1c(C2CC2)nc2ccccc2c1-c1ccc(F)cc1 [Pitavastatin, (3R,5S,6E)-7-[2-cyclopropyl-4-(4-fluorophenyl)quinolin-3-yl]-3,5-dihydroxyhept-6-enoic acid]",measured lengths of neurites compared with positive control H1152,"spiral ganglion neurons; Pitavastatin at 2 μM or higher, H1152 16.5 μM",as long or longer
same,effect on neurite length,spiral ganglion neurons,increase neurite length; also recorded: effective up to the highest dose tested
same,lowest effective dose for stimulating neurite growth (neurite length dose response),spiral ganglion neurons,2 µM
"Cc1cncc2cccc(S(=O)(=O)N3CCCNC[C@@H]3C)c12 [H1152, 4-methyl-5-{[(2S)-2-methyl-1,4-diazepan-1-yl]sulfonyl}isoquinoline]",effect on neurite length,spiral ganglion neurons,stimulate neurite length; also recorded: increased neurite lengths
"CC[C@H](C)C(=O)O[C@H]1C[C@@H](C)C=C2C=C[C@H](C)[C@H](CC[C@@H]3C[C@@H](O)CC(=O)O3)[C@H]21 [Lovastatin, (1S,3R,7S,8S,8aR)-8-{2-[(2R,4R)-4-hydroxy-6-oxooxan-2-yl]ethyl}-3,7-dimethyl-1,2,3,7,8,8a-hexahydronaphthalen-1-yl (2S)-2-methylbutanoate]",lowest effective dose for stimulating neurite growth (neurite length dose response),spiral ganglion neurons,5 µM
O=S(=O)(c1cccc2cnccc12)N1CCCNCC1 [Fasudil],effect on neurite length,spiral ganglion neurons,stimulated neurite length
"CCC(C)(C)C(=O)O[C@H]1C[C@@H](C)C=C2C=C[C@H](C)[C@H](CC[C@@H]3C[C@@H](O)CC(=O)O3)[C@H]21 [Simvastatin, (1S,3R,7S,8S,8aR)-8-{2-[(2R,4R)-4-hydroxy-6-oxooxan-2-yl]ethyl}-3,7-dimethyl-1,2,3,7,8,8a-hexahydronaphthalen-1-yl 2,2-dimethylbutanoate]",lowest effective dose for stimulating neurite growth (neurite length dose response),spiral ganglion neurons,5 µM
"CC(C)c1c(C(=O)Nc2ccccc2)c(-c2ccccc2)c(-c2ccc(F)cc2)n1CC[C@@H](O)C[C@@H](O)CC(=O)O [Atorvastatin, (3R,5R)-7-[2-(4-fluorophenyl)-3-phenyl-4-(phenylcarbamoyl)-5-(propan-2-yl)-1H-pyrrol-1-yl]-3,5-dihydroxyheptanoic acid]",lowest effective dose for stimulating neurite growth (neurite length dose response),spiral ganglion neurons,10 µM
CC(C)=CCC/C(C)=C/CC/C(C)=C/CC/C(C)=C/CO [geranylgeraniol],effect on neurite length at 10 μM,spiral ganglion neurons,no effect upon growth of neurite length
CC[C@H](C)C(=O)O[C@H]1C[C@H](O)C=C2C=C[C@H](C)[C@H](CC[C@@H](O)C[C@@H](O)CC(=O)O)[C@H]21 [Pravastatin],lowest effective dose for stimulating neurite growth (neurite length dose response),spiral ganglion neurons,> 25 µM
